Test results reported in PubChem BioAssay (NCI).
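Exposure lasted 48 hours, with cells grown in 96-well plates and compounds tested at five concentrations. TGI marks complete inhibition of growth.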

Experiments:
Assay in all cases: NCI tumour cell line growth inhibition, 48 h
OVCAR-4 ovarian = test system: OVCAR-4 ovarian
SK-OV-3 ovarian = test system: SK-OV-3 ovarian
SW-620 colon = test system: SW-620 colon
MOLT-4 leukemia = test system: MOLT-4 leukemia
NCI-H23 lung = test system: NCI-H23 lung
NCI-H522 lung = test system: NCI-H522 lung
786-0 renal = test system: 786-0 renal
MDA-MB-435 = test system: MDA-MB-435
SK-MEL-2 melanoma = test system: SK-MEL-2 melanoma
SK-MEL-28 melanoma = test system: SK-MEL-28 melanoma
HOP-92 NSCLC = test system: HOP-92 NSCLC
MALME-3M melanoma = test system: MALME-3M melanoma
SN12C renal = test system: SN12C renal
MCF7 breast = test system: MCF7 breast
TK-10 renal = test system: TK-10 renal
MDA-N = test system: MDA-N
UACC-62 melanoma = test system: UACC-62 melanoma
HL-60(TB) leukemia = test system: HL-60(TB) leukemia
LOX IMVI melanoma = test system: LOX IMVI melanoma
U251 CNS = test system: U251 CNS

SMILES	TGI (OVCAR-4 ovarian) [µM]	TGI (SK-OV-3 ovarian) [µM]	TGI (SW-620 colon) [µM]	TGI (MOLT-4 leukemia) [µM]	TGI (NCI-H23 lung) [µM]	TGI (NCI-H522 lung) [µM]	TGI (786-0 renal) [µM]	TGI (MDA-MB-435) [µM]	TGI (SK-MEL-2 melanoma) [µM]	TGI (SK-MEL-28 melanoma) [µM]	TGI (HOP-92 NSCLC) [µM]	TGI (MALME-3M melanoma) [µM]	TGI (SN12C renal) [µM]	TGI (MCF7 breast) [µM]	TGI (TK-10 renal) [µM]	TGI (MDA-N) [µM]	TGI (UACC-62 melanoma) [µM]	TGI (HL-60(TB) leukemia) [µM]	TGI (LOX IMVI melanoma) [µM]	TGI (U251 CNS) [µM]
Nc1nc(Cl)cc(NCC2(CO)CC(CCCc3ccccc3)C2)n1 (centres undefined)	> 100	> 100	> 100	> 100	> 100	> 100	> 100	> 100	> 100	> 100	> 95.9	> 100	> 100	> 100	> 100	> 100	> 100	> 100	> 100	> 100
Nc1c(C(=O)c2ccc(Cl)cc2)[nH]c(Nc2ccc(Cl)cc2)c1C(=S)Nc1ccccc1	5.14	19.3	51.9	42.6	11.9	20.3	9.41	20	25.8	14.4	22.2	36.1	22.5	21.6	16.5	21.5	27.1	> 100	16.6	9.73
O=[N+]([O-])c1ccc(CSc2c3ccccc3nc3ccccc23)cc1	31.1	41.4	> 24.4	> 21.2	25.5	3.62	4.22	14.3	32.3	13.5	> 37.3	6.04	9.81	> 100	17.4	23.1	29.3	22.8	10.6	20.9
CCCCC1CCCCCCc2[nH]c(/C=C3\N=C(c4ccc[nH]4)C=C3OC)cc21 (centres undefined)	4.23	7.37	1.15	0.0443	1.28	1.38	0.101	0.403	< 0.0237	0.492	0.42	0.689	1.32	1.11	3.18	1.35	< 0.0177	0.0103	–	0.49
NNC(=O)CC(=O)Nc1ccccc1Cl	> 100	> 100	> 100	> 100	> 100	> 100	> 100	> 100	> 100	> 100	> 100	> 100	> 100	> 100	> 100	> 100	> 100	> 100	> 100	> 100
CC(=O)NC1C(O)C(O)C(CO)OC1n1nc(SCc2ccccc2)c(=O)[nH]c1=O (centres undefined)	> 100	> 100	> 100	> 100	> 100	> 100	> 100	> 100	> 100	> 100	> 100	> 100	> 100	> 100	> 100	> 100	> 100	> 100	> 100	> 100
COCn1c(=O)n(C)c(=O)c2c1nc1c(c(=O)n(C)c(=O)n1COC)[n+]2[O-]	43.4	36.1	> 100	29.5	14	44	> 100	40.2	36.8	> 100	42	31.3	83.7	> 100	58.8	76.9	33.7	39.1	27.7	59.6
Cc1nnc(N2C(=O)C(=Cc3ccc(Cl)cc3)N=C2c2ccc(Cl)cc2)nc1/C=C\c1ccc(N(C)C)cc1	> 100	> 100	> 100	> 100	> 100	> 100	> 100	> 100	> 100	> 100	> 100	> 100	> 100	> 100	> 100	> 100	> 100	> 100	> 100	> 100
CCCCCCCCCCCCCCCCCCNc1ccn(C2OC(COP(=O)(O)OCC(COP(=O)(O)OCC3OC(n4cc(C)c(=O)[nH]c4=O)CC3N=[N+]=[N-])OCCCCCCCCCCCCCCCCCC)C(O)C2O)c(=O)n1 (centres undefined)	> 100	> 100	> 100	> 100	> 100	96.5	> 100	> 100	> 100	> 100	> 100	> 100	> 100	> 100	> 100	> 100	> 100	> 100	54.2	27.8
CC(/C=C/C=C\C=C\C=C(/C)C(=O)NC(C)CO)=C\C(C)C(O)/C(C)=C/C(C)CCc1ccccc1 (centres undefined)	37.4	64	28.4	55.6	17	17.6	26.4	39.7	29.6	25.9	13.5	22.3	26.4	19.7	32.1	31.5	25.6	> 100	16.5	37.9
CCC(C#N)NCc1ccc(CNC(C#N)CC)cc1 (centres undefined)	> 100	> 100	> 100	> 100	> 100	> 100	> 100	> 100	> 100	> 100	> 100	> 100	> 100	> 100	> 100	> 100	> 100	> 100	> 100	> 100
